Test results as given in patent publication US20080261863A1 (priority 2004, published 2008).

Key:
[1] = Measurement of blood pressure in anesthetized rats; format: in vivo, rat; conditions: male, Wistar, rat, in vivo; intravenous, rats; read-out: ED50 blood pressure lowering
Experimental: (§1) Blood pressure in rats was measured following administration of either non-PEGylated or PEGylated VPAC2 agonist peptides. Blood pressure was measured as follows: Male Wistar rats were anesthetized with pentobarbital (55 mg/kg, i.p.) and the right carotid artery and jugular vein were cannulated. The carotid cannula was connected to the Biopac System (Harvard Apparatus Co., Harvard, Mass.) for continuous monitoring of blood pressure and heart rate. Vehicle or peptide was administered by injection through the jugular vein catheter.

[2] = test system: blood pressure in Male Wistar rats; assay: Measurement of blood pressure in anesthetized rats; format: in vivo, rat; conditions: FIG. 2, percentage of mean blood pressure of vehicle-treated rats
Experimental: as §1

[3] = biological target: T1, VPAC2 receptor (Homo sapiens, UniProt P41587); assay: Cyclic AMP SPA in CHO cells expressing VPAC2; format: cell-based; conditions: cAMP in cells overexpressing the VPAC2 receptor
T1 construct: expressed in transfected cells; host or cells: CHO cells under hygromycin and Geneticin selection
T1 sequence (P41587 24-438): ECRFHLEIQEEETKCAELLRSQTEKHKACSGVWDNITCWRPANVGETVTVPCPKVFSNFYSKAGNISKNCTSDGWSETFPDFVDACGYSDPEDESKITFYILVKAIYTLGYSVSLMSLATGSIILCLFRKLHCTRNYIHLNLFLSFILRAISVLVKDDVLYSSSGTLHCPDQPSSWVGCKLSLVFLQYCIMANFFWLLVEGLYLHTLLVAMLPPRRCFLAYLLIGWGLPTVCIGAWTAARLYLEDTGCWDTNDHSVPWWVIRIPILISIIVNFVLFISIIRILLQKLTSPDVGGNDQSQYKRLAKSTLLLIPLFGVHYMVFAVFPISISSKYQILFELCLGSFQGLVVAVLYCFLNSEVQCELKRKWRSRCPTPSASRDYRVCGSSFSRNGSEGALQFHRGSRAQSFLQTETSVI
Experimental: CHO cells expressing the VPAC2 peptide were plated in 96-well plates at 8×10^4 cells/well and grown at 37° C. for 24 hours in αMEM, nucleosides, glutamine (Gibco/BRL, Rockville, Md.), 5% FBS, 100 μg/mL Pen/Strep, 0.4 mg/mL hygromycin, and 1.5 mg/mL Geneticin (Gibco/BRL). The media was removed and the plates were washed with PBS. The cells were incubated with a peptide (in 10 mM Hepes, 150 mM NaCl, 5 mM KCl, 2.5 mM CaCl2, 1.2 mM KH2PO4, 1.2 mM MgSO4, 25 mM NaHCO3 (pH 7.4) with 1% BSA and 100 μM IBMX) for 15 min. at 37° C. Cyclic AMP in the cell extracts was quantitated using the cAMP SPA direct screening assay system (Amersham Pharmacia Biotech Inc., Piscataway, N.J.,). The amount of cAMP present in the lysates was determined following instructions provided with this kit. The amount of cAMP (in pmol) produced at each concentration of peptide was plotted and analyzed by nonlinear regression using Prizm software to determine the EC50 for each peptide.

[4] = biological target: T2, VPAC1 (Homo sapiens, UniProt P32241); assay: Cyclic AMP assay, VPAC1 agonist activity; format: cell-based
T2 sequence (P32241 31-457): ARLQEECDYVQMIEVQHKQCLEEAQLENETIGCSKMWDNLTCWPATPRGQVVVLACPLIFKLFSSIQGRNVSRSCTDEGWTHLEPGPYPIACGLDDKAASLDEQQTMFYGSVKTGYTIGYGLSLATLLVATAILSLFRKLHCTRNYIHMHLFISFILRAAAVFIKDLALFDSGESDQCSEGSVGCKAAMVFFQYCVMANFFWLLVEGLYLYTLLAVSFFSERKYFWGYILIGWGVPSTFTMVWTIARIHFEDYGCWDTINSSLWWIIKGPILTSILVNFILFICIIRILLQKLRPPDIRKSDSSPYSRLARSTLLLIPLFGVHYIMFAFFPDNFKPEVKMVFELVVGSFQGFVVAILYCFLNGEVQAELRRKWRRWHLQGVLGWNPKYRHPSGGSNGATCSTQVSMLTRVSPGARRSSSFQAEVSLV

| Compound | ED50 [1] | effect on blood pressure [2] | VPAC2 receptor agonist activity [3] | VPAC1 agonist activity [4] |
| --- | --- | --- | --- | --- |
| CC[C@H](C)[C@H](NC(=O)[C@H](CO)NC(=O)[C@H](CCC(N)=O)NC(=O)[C@H](CC(C)C)NC(=O)[C@H](Cc1ccc(O)cc1)NC(=O)[C@H](CCCCN)NC(=O)[C@H](CCCCN)NC(=O)[C@H](C)NC(=O)[C@H](C)NC(=O)[C@@H](NC(=O)[C@H](CCC(N)=O)NC(=O)[C@H](CCCCN)NC(=O)[C@H](CCCNC(=N)N)NC(=O)[C@H](CC(C)C)NC(=O)[C@H](CCCNC(=N)N)NC(=O)[C@@H](NC(=O)[C@H](Cc1ccc(O)cc1)NC(=O)[C@H](CCC(N)=O)NC(=O)[C@H](CC(=O)O)NC(=O)[C@@H](NC(=O)[C@H](Cc1ccccc1)NC(=O)[C@@H](NC(=O)[C@H](C)NC(=O)[C@H](CC(=O)O)NC(=O)[C@H](CO)NC(=O)[C@@H](N)Cc1c[nH]cn1)C(C)C)[C@@H](C)O)[C@@H](C)O)C(C)C)C(=O)N[C@@H](CCCCN)C(=O)N[C@@H](CCC(N)=O)C(=O)N[C@@H](CCCCN)C(=O)N[C@@H](CCCNC(=N)N)C(=O)N[C@@H](Cc1ccc(O)cc1)C(=O)N[C@@H](CS)C(=O)O [Peptide P12] | 3 µg/kg | significantly lowers blood pressure | – | – |
| PACAP-27 | – | – | potent agonist of both the VPAC1 and VPAC2 receptors | potent agonist of both the VPAC1 and VPAC2 receptors |
